# Data: patent publication US5047397A, “Linear analogs of atrial natriuretic peptides” (California Biotechnology Inc., priority 1988, dated 1991)
# *1 amine or outer side, *2 acyl side, *3 side chain or, on linkers, in order; H or OH if unused. Where a SMILES comes first, the peptide text is derived from it. Where no end group is shown, it is not given here. [ ]: non-standard residue; d: D form. The star is where a group is joined. X5 = O=C(C(Cc1cccc2ccccc12)Cc1cccc2ccccc12)*; Acetyl(2-naphthyl) = O=C(Cc1ccc2ccccc2c1)*; 2Naphthoyl = O=C(c1ccc2ccccc2c1)*; X1 = O=C(Cc1ccc(N[*:1])cc1)[*:2]; tBuAla = CC(C)(C)C[C@H](N)C(=O)O; X9 = O=C(C(Cl)c1ccccc1)*; Inp = O=C(O)C1CCNCC1; BrAc = O=C(CBr)*; X3 = CCC(C)CN*
# Molecular target: T1, specific ANP receptor sites on BASM or BAE cells (Bos taurus, UniProt P10730)
# T1 construct: specific receptor sites on BASM or BAE cells; endogenous in cells; host or cells: cultured BASM and BAE cells
# T1 sequence (P10730 42-537): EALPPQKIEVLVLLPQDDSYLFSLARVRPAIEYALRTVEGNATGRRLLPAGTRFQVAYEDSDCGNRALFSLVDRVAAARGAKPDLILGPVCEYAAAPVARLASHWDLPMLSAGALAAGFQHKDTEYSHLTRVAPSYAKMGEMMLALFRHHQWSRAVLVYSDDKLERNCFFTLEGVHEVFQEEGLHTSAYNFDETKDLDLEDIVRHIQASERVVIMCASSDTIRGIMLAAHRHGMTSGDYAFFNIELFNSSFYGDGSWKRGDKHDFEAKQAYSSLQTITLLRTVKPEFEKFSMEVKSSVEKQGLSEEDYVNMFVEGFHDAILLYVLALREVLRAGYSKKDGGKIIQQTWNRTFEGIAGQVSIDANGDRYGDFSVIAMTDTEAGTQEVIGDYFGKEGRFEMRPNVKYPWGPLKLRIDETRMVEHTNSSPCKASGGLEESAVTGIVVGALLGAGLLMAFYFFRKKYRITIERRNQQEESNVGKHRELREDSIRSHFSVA
# Assay: Competitive displacement receptor binding of (125I)-rANP(126-150) on cultured cells
# Parameters: species or system bovine
# Details: concentration of unlabeled peptide displacing 50% of maximal binding of 0.5 nM (125I)-rANP(126-150); BASM or BAE cells
# From the text: Analogous "competitive displacement" receptor binding assays are considered commonplace in the art for examining specific ligand-receptor interactions.
# Assuming these ANP analogs act at one or more ANP receptor sites, then increased receptor affinity should reflect increased biological potency.
compound,measurement,value
"CC[C@H](C)[C@H](NC(=O)[C@H](CCCNC(=N)N)NC(=O)[C@H](CC(=O)O)NC(=O)[C@@H](NC(=O)[C@H](CCCNC(=N)N)NC(=O)CNC(=O)CNC(=O)[C@@H](Cc1ccccc1)NC(=O)[C@H](C)N)[C@@H](C)CC)C(=O)NCC(=O)N[C@@H](C)C(N)=O [AP151, A--F^ --G--G--R--I--D--R--I--G--A--NH2] (H-A[dF]GGRIDRIGA-NH2)",Ki(app),39.6 nM
"AFGGRIDRIGY-NH2 [AP176, A--F--G--G--R--I--D--R--I--G--Y--NH2]",Ki(app),6.65 nM
CC[C@H](C)[C@H](NC(=O)[C@H](CCCNC(=N)N)NC(=O)[C@H](CC(=O)O)NC(=O)[C@@H](NC(=O)[C@H](CCCNC(=N)N)NC(=O)Cc1ccc(NC(=O)[C@H](Cc2ccccc2)NC(=O)CBr)cc1)[C@@H](C)CC)C(N)=O [AP819] (BrAc-F[X1]RIDRI-NH2),Ki(app),3.8 nM
CC[C@H](C)CNC(=O)[C@H](CCCNC(=N)N)NC(=O)[C@H](CC(=O)O)NC(=O)[C@@H](NC(=O)[C@H](CCCNC(=N)N)NCC1CCN(C(=O)COc2ccc3ccccc3c2)CC1)[C@@H](C)CC [AP812],Ki(app),32.0 nM
CC[C@H](C)[C@H](NC(=O)[C@H](CCCNC(=N)N)NC(=O)[C@H](CC(=O)O)NC(=O)[C@@H](NC[C@H](CCCCN)NC(=O)Cc1ccc(NC(=O)c2ccc3ccccc3c2)cc1)[C@@H](C)CC)C(N)=O [AP809],Ki(app),14.7 nM
"FGGRIDRI-NH2 [AP119, F--G--G--R--I--D--R--I--NH2]",Ki(app),8.9 nM
CC[C@H](C)[C@H](NC(=O)[C@H](CCCNC(=N)N)NC(=O)[C@H](CC(=O)O)NC(=O)[C@@H](NC(=O)[C@H](CCCNC(=N)N)NC(=O)CNC(=O)CNC(=O)C(Cc1cccc2ccccc12)Cc1cccc2ccccc12)[C@@H](C)CC)C(=O)NCC(=O)N[C@@H](C)C(N)=O [AP533] (X5-GGRIDRIGA-NH2),Ki(app),52.0 nM
"CC[C@H](C)[C@H](NC(=O)[C@H](CCCNC(=N)N)NC(=O)[C@H](CC(=O)O)NC(=O)[C@@H](NC(=O)[C@H](CCCNC(=N)N)NC(=O)CNC(=O)CNC(=O)Cc1ccc2ccccc2c1)[C@@H](C)CC)C(N)=O [AP314, (2-NA)--G--G--R--I--D--R--I--NH2] ({Acetyl(2-naphthyl)}-GGRIDRI-NH2)",Ki(app),14.5 nM
"CC[C@H](C)[C@H](NC(=O)[C@H](CCCNC(=N)N)NC(=O)[C@H](CC(=O)O)NC(=O)[C@H](CC(C)(C)C)NC(=O)[C@H](CCCNC(=N)N)NC(=O)CNC(=O)CNC(=O)Cc1ccc2ccccc2c1)C(N)=O [AP590, (2-NA)--G--G--R--tBuA--D--R--I--NH2] ({Acetyl(2-naphthyl)}-GGR[tBuAla]DRI-NH2)",Ki(app),12.0 nM
"CC[C@H](C)[C@H](NC(=O)[C@H](CCCNC(=N)N)NC(=O)[C@@H](CC(=O)O)NC(=O)[C@@H](NC(=O)[C@H](CCCNC(=N)N)NC(=O)CNC(=O)CNC(=O)[C@H](Cc1ccccc1)NC(=O)[C@H](C)N)[C@@H](C)CC)C(=O)NCC(=O)N[C@@H](C)C(N)=O [AP303, A--F--G--G--R--I--D^ --R--I--G--A--NH2] (H-AFGGRI[dD]RIGA-NH2)",Ki(app),> 200 nM
CCC(C)CNC(=O)[C@H](CCCNC(=N)N)NC(=O)[C@H](CC(=O)O)NC(=O)[C@@H](NC(=O)[C@H](CCCNC(=N)N)NC(=O)C1CCN(C(=O)Cc2ccc3ccccc3c2)CC1)[C@@H](C)CC (stereo partly shown) [AP557] ({Acetyl(2-naphthyl)-Inp}-RIDR-X3),Ki(app),41.7 nM
CC[C@H](C)[C@H](NC(=O)[C@H](CCCNC(=N)N)NC(=O)[C@H](CC(=O)O)NC(=O)[C@@H](NC(=O)[C@H](CCCNC(=N)N)NC(=O)C1CCN(C(=O)c2ccc3ccccc3c2)CC1)[C@@H](C)CC)C(N)=O [AP562] ({2Naphthoyl-Inp}-RIDRI-NH2),Ki(app),22.4 nM
CC[C@H](C)[C@H](NC(=O)[C@H](CCCNC(=N)N)NC(=O)[C@H](CC(=O)O)NC(=O)[C@@H](NC(=O)[C@H](CCCNC(=N)N)NC(=O)Cc1ccc(NC(=O)C(Cl)c2ccccc2)cc1)[C@@H](C)CC)C(N)=O (stereo partly shown) [AP817] (X9-[X1]RIDRI-NH2),Ki(app),21.1 nM
